Data set [1] concerns the target T1, CYP2C9 (Homo sapiens, UniProt P11712).
T1 construct: host or cells: insect cell microsomes
Kind of data set: Cytochrome inhibition, fluorescent detection (7-MFC substrate). The class given is in vitro ADME. Particulars: recombinant human CYP2C9. The protocol: (§1) To screen the inhibition potential of the compounds, recombinant human cytochrome P450 enzymes (CYP1A2, CYP2C9, CYP2C19, CYP2D6, and CYP3A4) and probe substrates were used with the fluorescent detection method. Incubations were conducted in 200-µL volume 96 well microtiter plates (COSTAR 3915). Addition of cofactor-buffer mixture (KH2PO4 buffer, 1.3 mM NADP+, 3.3 mM MgCl2, 3.3 mM Glucose-6-phosphate and 0.4 U/mL Glucose-6-phosphate Dehydrogenase), supersomes control, standard inhibitors (Furafyline, Tranylzypromine, Ketoconazole, Sulfaphenazole, and Quinidine; from Sigma Aldrich), and test compounds to plates were carried out using a a liquid handling station (Zephyr Caliper). The plate was then pre-incubated at 37 °C for 5 min, and the reaction initiated by the addition of pre-warmed enzyme/substrate (E/S) mix. […] Fluorescence per well was measured using a fluorescence plate reader (Tecan M1000 pro), and the percentage of inhibition was calculated.

The test system of data set [2] is SAMR1 and SAMP8 mice. Description: Oxidative stress: hydrogen peroxide levels (fluorimetric kit). The class given is in vivo, mouse. Particulars: hippocampus, both RL-208 treated mice groups vs control groups. The protocol: Male SAMR1 and SAMP8 mice (n = 41) with 20-weeks-old were used to carry out cognitive and molecular analysis. The animals were randomly divided into four groups: SAMR1 control (SR1 Ct) group (n = 11), SAMP8 control (SP8 Ct) group (n = 8), SAMR1 treated with RL-208 (SR1 RL-208 (5 mg/Kg)) group (n = 10) and SAMP8 treated with RL-208 (SP8 RL-208 (5 mg/Kg)) group (n = 12). Animals had free access to food and water, under standard temperature conditions (22±2 °C) and 12h:12h light-dark cycles (300 lux/0 lux). RL-208, (3,4,8,9-tetramethyltetracyclo[4.4.0.0^3,9.0^4,8]dec-1-yl)-methylamine hydrochloride, (5 mg/kg/day) was administered through drinking water for four weeks before starting the cognitive test. RL-208 was administered up to euthanasia (Figure 1A). Water consumption was controlled each week for each cage and strain. Afterwards, RL-208 concentration was adjusted accordingly to reach the optimal dose for each cage. […]

In data set [3] the target is T2, CYP2D6 (Homo sapiens, UniProt P10635).
T2 construct: host or cells: insect cell microsomes
T2 sequence (P10635 whole entry): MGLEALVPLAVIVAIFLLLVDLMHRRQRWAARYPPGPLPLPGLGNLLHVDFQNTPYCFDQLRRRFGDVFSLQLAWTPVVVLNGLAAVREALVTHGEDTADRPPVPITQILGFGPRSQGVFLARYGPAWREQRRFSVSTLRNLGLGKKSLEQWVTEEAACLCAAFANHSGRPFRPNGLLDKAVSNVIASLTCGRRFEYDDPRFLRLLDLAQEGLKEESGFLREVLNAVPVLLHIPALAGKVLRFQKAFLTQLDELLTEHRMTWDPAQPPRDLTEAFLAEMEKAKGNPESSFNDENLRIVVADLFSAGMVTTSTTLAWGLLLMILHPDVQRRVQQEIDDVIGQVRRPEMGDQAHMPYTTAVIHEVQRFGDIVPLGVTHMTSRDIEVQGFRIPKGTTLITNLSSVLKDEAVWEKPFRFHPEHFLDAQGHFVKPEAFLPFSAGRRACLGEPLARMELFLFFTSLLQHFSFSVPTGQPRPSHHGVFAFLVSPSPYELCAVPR
Description: Cytochrome inhibition, fluorescent detection (AMMC substrate). The class given is in vitro ADME. The note with it: recombinant human CYP2D6. As for the experimental part: as §1

A short description of data set [4]: Microsomal stability in mice microsomes. The data set is classed as in vitro ADME. Particulars: 37 °C, 0-60 min. The protocol: The human, rat, and mice microsomes employed were purchased from Tebu-Xenotech. The compound was incubated at 37 °C with the microsomes in a 50 mM phosphate buffer (pH = 7.4) containing 30 mM MgCl2, 10 mM NADP, 100 mM glucose-6-phosphate and 20 U/mL glucose-6-phosphate-dehydrogenase. Samples (75 µL) were taken from each well at 0, 10, 20, 40, and 60 min and transferred to a plate containing 4 °C 75 µL acetonitrile. Then, 30 µL of 0.5% formic acid in water was added to improve the chromatographic conditions. The plate was centrifuged (46,000× g, 30 min) and supernatants were taken and analyzed in a UPLC-MS/MS (Xevo-TQD, Waters) by employing a BEH C18 column and an isocratic gradient of 0.1% formic acid in water: 0.1% formic acid acetonitrile (60:40) for 5 minutes and a flow of 0.25 mL/min. The metabolic stability of the compounds was calculated from the logarithm of remaining compounds at each time point studied.

In data set [5] the test system is NMDAR. On the set-up: method as in PMID 29767953. The note with it: early preclinical in vitro experiments; cited from earlier work.
The subject of data set [6] is SAMR1 and SAMP8 mice. Description: proBDNF and mBDNF protein levels in the hippocampus (ELISA). The class given is in vivo, mouse. As for the experimental part:
Male SAMR1 and SAMP8 mice (n = 41) with 20-weeks-old were used to carry out cognitive and molecular analysis. The animals were randomly divided into four groups: SAMR1 control (SR1 Ct) group (n = 11), SAMP8 control (SP8 Ct) group (n = 8), SAMR1 treated with RL-208 (SR1 RL-208 (5 mg/Kg)) group (n = 10) and SAMP8 treated with RL-208 (SP8 RL-208 (5 mg/Kg)) group (n = 12). Animals had free access to food and water, under standard temperature conditions (22±2 °C) and 12h:12h light-dark cycles (300 lux/0 lux). RL-208, (3,4,8,9-tetramethyltetracyclo[4.4.0.0^3,9.0^4,8]dec-1-yl)-methylamine hydrochloride, (5 mg/kg/day) was administered through drinking water for four weeks before starting the cognitive test. RL-208 was administered up to euthanasia (Figure 1A). Water consumption was controlled each week for each cage and strain. Afterwards, RL-208 concentration was adjusted accordingly to reach the optimal dose for each cage. Three days after the behavioural and cognitive tests, mice were euthanized by cervical dislocation. Brains were immediately removed from the skull. The hippocampus and cortex were then isolated and frozen in powdered dry ice. They were maintained at −80 °C for further use. Tissue samples were homogenized in lysis buffer containing phosphatase and protease inhibitors (Cocktail II, Sigma). Total protein levels were obtained, and protein concentration was determined by the method of Bradford. The hippocampal determination of pro-Brain-derived neurotrophic factor (proBDNF) and mature brain-derived neurotrophic factor (mBDNF) protein levels was performed using the enzyme-linked immunosorbent assay (ELISA) kit (Biosensis) according to the manufacturer’s instructions.
A general note: An ELISA detects its analyte on a solid surface through an enzyme-linked reagent.

pIC50: −log10 of the molar value.

T1 sequence (P11712 whole entry): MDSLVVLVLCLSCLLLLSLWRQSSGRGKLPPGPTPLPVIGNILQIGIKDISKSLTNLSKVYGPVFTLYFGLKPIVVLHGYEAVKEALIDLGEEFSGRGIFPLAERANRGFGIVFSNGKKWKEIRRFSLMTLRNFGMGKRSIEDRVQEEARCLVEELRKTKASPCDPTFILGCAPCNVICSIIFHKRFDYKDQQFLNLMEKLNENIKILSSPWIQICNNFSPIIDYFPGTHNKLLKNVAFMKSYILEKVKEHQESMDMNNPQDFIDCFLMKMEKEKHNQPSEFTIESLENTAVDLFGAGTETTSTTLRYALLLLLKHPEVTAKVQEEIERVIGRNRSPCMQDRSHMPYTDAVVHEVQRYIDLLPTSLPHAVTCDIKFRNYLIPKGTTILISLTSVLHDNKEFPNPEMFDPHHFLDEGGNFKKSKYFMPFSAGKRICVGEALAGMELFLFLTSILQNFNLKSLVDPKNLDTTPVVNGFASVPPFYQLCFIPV

As to `CC12CC3CC1(C)C1(C)CC3(CN)CC21C.Cl` [RL-208, (3,4,8,9-tetramethyltetracyclo [4.4.0.0^3,9.0^4,8]dec-1-yl)methylamine hydrochloride], in data set [1], the CYP2C9 inhibition turned out to be 12 ± 2%. Moreover, the “hydrogen peroxide (ROS) levels” value in data set [2] is recorded as “significant decrease”. Moreover, the CYP2D6 inhibition in data set [3] turned out to be 10 ± 3%. Also, in data set [4], the microsomal stability result is listed as “good”. Further, the negative logarithm of the IC50 (pIC50) in data set [5] is about 6.00. Further, the “mature BDNF protein levels” value in data set [6] (RL-208 treated mice vs control groups) was “significant augment”. In data set [6] (SP8 treated vs control), the proBDNF protein levels result is given as “significant reduction”. Besides, the “proBDNF protein levels (differences)” value in data set [6] (SR1 strain) is reported as “not significant”.

By pIC50 is commonly meant −log10 of the IC50, conventionally taken in molar units.

(Values after publication PMC7151078, “A Novel NMDA Receptor Antagonist Protects against Cognitive Decline Presented by Senescent Mice” (Pharmaceutics, 2020).)
